Test results taken from US20220144812A1, “QUINOLINE DERIVATIVES AND THEIR USE FOR THE TREATMENT OF CANCER” (Epizyme, Inc., priority 2019, published 2022).
Read-outs that look alike come from different tables or passages of the source.

Experiments:
[1] = biological target: T1, CREBBP (1084-1701) (Homo sapiens, UniProt Q92793); assay: Biochemical assay for CREBBP (1084-1701), SAMDI; conditions: SAMDI, read-out: CREBBP Biochemistry IC50
T1 construct: measured in the following biochemical assay using CREBBP (1084-1701); purchased
Description: The following example describes materials and methods relating to a biochemical assay for CREBBP (1084-1701). IC50 values (micromolar (μM)) are summarized in Table 1, Table 2, and Table 3 under the column labeled: “CREBBP Biochemistry IC50 (micromolar).”
MATERIALS: Reagents 1M Tris pH 8.0, Tween 20 10%, DTT, bovine serum gelatin (BSG) 2%, Peptide #233 (biotin-H3 11-25, K14R, K23R), Acetyl-CoA, CREBBP (1084-1701), formic acid (100%), and sodium bicarbonate were commercially available.
METHODS: The effect of compounds was measured in the following biochemical assay using CREBBP (1084-1701). Enzyme mix 30 μL per well was added using a Multi-drop to wells of prepared Compound Stock plate. The enzyme was incubated in the Compound Stock plate for 30 minutes at room temperature. Substrate mix, 20 μL per well, was added to Compound Stock plate using a Multi-drop. The plate was covered and incubate 30 minutes at room temperature. The reaction was stopped with addition of 5 μL per well of 5% formic acid using a Multi-drop. The plate was Incubated for 30 minutes at room temperature. The reaction mixture was neutralized with addition of 5 μL per well of 10% sodium bicarbonate using a Multi-drop. The plate was Incubated for 35 minutes at room temperature. The reaction mixture was Transferred 2.5 μL per well to a SAMDI biochip. The plate was Incubated for 60 minutes at room temperature. The samples were washed, dried, and matrix applied to SAMDI biochip. The SAMDI biochip was then read on the mass spectrometer.

[2] = system: H3K18Ac in HB-CLS-2 cells; assay: H3K18AC in-cell western (ICW) assay; type: cell-based; conditions: read-out: CREBBP ICW IC50
Outline: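 HB-CLS-2 cells seeded 16–24 hours before 2 hr compound treatment at 37° C, 5% CO2, then methanol-fixed. H3K18Ac detected with rabbit monoclonal primary (overnight, 4° C) and 800CW anti-rabbit secondary; DRAQ5 stained DNA. Plates imaged at 700 and 800 nm for integrated intensity; IC50 in μM.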

[3] = system: 647V cells; assay: High throughput proliferation (HTP) assay; type: cell-based; conditions: read-out: CREBBP HTP IC50
Description: The following example describes methods and materials relating to a high throughput proliferation (HTP) assay. IC50 values (micromolar) are summarized in Table 1, Table 2, and Table 3 under the column labeled: “CREBBP HTP IC50 (micromolar).”
MATERIALS: 647V cell line, Dulbecco's MEM, penicillin-streptomycin, heat inactivated fetal bovine serum, D-PBS, and CellTiter-Glo were commercially available.
647V adherent cells were maintained in complete growth medium (Dulbecco's MEM supplemented with 15% v/v heat inactivated fetal bovine serum) and cultured at 37° C. under 5% CO2.
METHOD: Measurement of the effect of compound in High Throughput Proliferation (HTP) assays was performed as follows: Exponentially growing 647V cells were plated, in triplicate, in 384-well plates at the appropriate cell density in a final volume of 50 μl. Cells were incubated in the presence of increasing concentrations of compound. Viable cell number was determined at day 7 by addition of 35 μl CellTiter-Glo to each well of the plate, incubated in the dark for 30 minutes, and read on a PerkinElmer EnVision instrument to enumerate the number of cells.

[4] = Homo sapiens, 647-V, high throughput proliferation
[5] = H3K18Ac in-cell western, HB-CLS-2 cells
[6] = Homo sapiens, 647-V, high throughput proliferation, 647V cells
[7] = 2 h, H3K18Ac in HB-CLS-2 cells, 2 hrs compound incubation
[8] = Homo sapiens, 647-V, 168 h, 647V cells, day 7, CellTiter-Glo

T1 sequence (Q92793 1084-1701): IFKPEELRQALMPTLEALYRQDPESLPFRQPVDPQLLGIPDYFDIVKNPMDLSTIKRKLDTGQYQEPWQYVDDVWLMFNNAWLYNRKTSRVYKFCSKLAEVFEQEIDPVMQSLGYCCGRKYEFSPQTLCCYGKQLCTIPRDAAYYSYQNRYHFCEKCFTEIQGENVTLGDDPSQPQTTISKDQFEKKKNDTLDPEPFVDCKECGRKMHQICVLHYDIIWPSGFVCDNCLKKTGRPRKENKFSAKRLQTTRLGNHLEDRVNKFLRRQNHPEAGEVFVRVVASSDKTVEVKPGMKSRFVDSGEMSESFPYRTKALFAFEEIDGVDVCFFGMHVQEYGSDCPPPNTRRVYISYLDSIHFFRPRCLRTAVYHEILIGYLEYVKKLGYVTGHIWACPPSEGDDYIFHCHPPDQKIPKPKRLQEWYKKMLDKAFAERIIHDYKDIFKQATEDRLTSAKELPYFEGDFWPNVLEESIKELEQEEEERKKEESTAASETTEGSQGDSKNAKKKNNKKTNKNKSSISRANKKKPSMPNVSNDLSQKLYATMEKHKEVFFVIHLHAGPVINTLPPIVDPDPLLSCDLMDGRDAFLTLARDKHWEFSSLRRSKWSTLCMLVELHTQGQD

Row | IC50 [1] | IC50 ([2]; H3K18Ac in-cell western) | IC50 [2, 5] | SMILES | IC50 [3, 4] | other results
1 | 0.028 µM | 0.23 µM |  | CCn1ncc(CN(C)C(=O)c2nc(-c3ccc(OCCCNC)c(C)c3)nc3ccc(Cl)cc23)c1C [Compound 29] | 0.1 µM | 
2 | 0.052 µM | 0.3 µM |  | CCn1ncc(CN(C)C(=O)c2nc(-c3ccc(OCCCNC)c(C)c3)nc3ccc(Cl)cc23)c1C [Compound 36] |  | IC50 ([3]; high throughput proliferation): 0.18 µM
3 |  | 0.43 µM |  | CCn1ncc(CN(C)C(=O)c2nc(-c3ccc4nc[nH]c4c3)nc3ccc(Cl)cc23)c1C [Compound 47] | 0.42 µM | 
4 | 0.25 µM | 0.52 µM |  | CCn1ncc(CN(C)C(=O)c2nc(-c3ccc4c[nH]nc4c3Cl)nc3ccc(COC)cc23)c1C [Compound 52] | 0.69 µM | 
5 |  | 0.66 µM |  | CCn1ncc(CN(C)C(=O)c2nc(-c3ccc4[nH]cnc4c3)nc3ccc(Cl)cc23)c1C [Compound 57] | 0.5 µM | 
6 |  | 0.67 µM |  | CCn1ncc(CN(C)C(=O)c2nc(-c3ccc4nc[nH]c4c3)nc3ccc(Cl)cc23)c1C [Compound 59] |  | IC50 ([3]; high throughput proliferation): 0.44 µM
7 | 0.25 µM | 0.8 µM |  | CCn1ncc(CN(C)C(=O)c2nc(-c3ccc4c[nH]nc4c3Cl)nc3ccc(COC)cc23)c1C [Compound 68] |  | IC50 ([3]; high throughput proliferation): 0.69 µM
8 | 0.0094 µM | 0.92 µM |  | CCn1ncc(CN(C)C(=O)c2nc(-c3cccc(Cl)c3)nc3ccc(Cl)cc23)c1C [Compound 71] | 1.2 µM | 
9 | 1.8 µM | 1.2 µM |  | CCn1ncc(CN(C)C(=O)c2cc(-c3ccccc3C#N)nc3ccc(Cl)cc23)c1C [Compound 81] | 2.2 µM | 
10 | 0.71 µM | 1.3 µM |  | CCn1ncc(CN(C)C(=O)c2cc(-c3ccccc3F)nc3ccc(Cl)cc23)c1C [Compound 86] | 1.4 µM | 
11 | 0.31 µM | 1.7 µM |  | CCn1ncc(CN(C)C(=O)c2cc(-c3ccccn3)nc3ccc(Cl)cc23)c1C [Compound 92] | 0.41 µM | 
12 | 0.31 µM | 2.4 µM |  | CCn1ncc(CN(C)C(=O)c2cc(-c3cccc(Cl)c3)nc3ccc(Cl)cc23)c1C [Compound 106] | 2.6 µM | 
13 | 2 µM | 4.7 µM |  | CCn1ncc(CN(C)C(=O)c2nc(-c3cccc(Cl)c3)nc3ccccc23)c1C [Compound 130] | 6.5 µM | 
14 | 0.31 µM | 4.9 µM |  | Cc1c(CN(C)C(=O)c2cc(-c3cccc(Cl)c3)nc3ccc(Cl)cc23)cnn1C(C)C [Compound 132] | 2.2 µM | 
15 | 5.3 µM | 15 µM |  | CCN(Cc1cnn(CC)c1C)C(=O)c1cc(-c2cccc(Cl)c2)nc2ccc(Cl)cc12 [Compound 175] | 9.4 µM | 
16 |  | 17 µM |  | CCn1ncc(CN(C)C(=O)c2cc(-n3cc4c(n3)CN(C(=O)OC(C)(C)C)CC4)nc3ccc(Cl)cc23)c1C [Compound 178] | 4.8 µM | 
17 |  | 19 µM |  | CCn1ncc(CN(C)C(=O)c2nc(-c3cc(Cl)cc(OCCCNC(=O)OC(C)(C)C)c3)nc3ccc(Cl)cc23)c1C [Compound 180] | 20 µM | 
18 |  | 20 µM |  | CCn1ncc(CN(C)C(=O)c2nc(-n3ncc4c3CN(C(=O)OC(C)(C)C)CC4)nc3ccc(Cl)cc23)c1C [Compound 192] | 9.4 µM | 

Row | IC50 [1] | IC50 ([2]; H3K18Ac in-cell western) | IC50 [2, 5] | SMILES | IC50 [3, 4] | other results
19 |  | 20 µM |  | CCn1ncc(CN(C)C(=O)c2nc(-n3cc4c(n3)CN(C(=O)OC(C)(C)C)CC4)nc3ccc(Cl)cc23)c1C [Compound 193] | 8.2 µM | 
20 |  | 20 µM |  | CCn1ncc(CN(C)C(=O)c2nc(N3CCCN(C)CC3)nc3ccc(Cl)cc23)c1C [Compound 196] | 17 µM | 
21 |  |  | 20 µM | CCc1cc(-c2nc(C(=O)N(C)Cc3cnn(CC)c3C)c3cc(Cl)ccc3n2)ccc1OCCCN(C)C(=O)OC(C)(C)C [Compound 209] |  | IC50 [3, 6]: 8.8 µM
22 |  |  | 20 µM | CCn1ncc(CN(C)C(=O)c2cc(-c3ccc(OCCCNC)cn3)nc3ccc(Cl)cc23)c1C [Compound 219] |  | IC50 [3, 6]: 20 µM
23 |  |  | 20 µM | CCc1[nH]cc(CN(C)C(=O)c2nc(-c3ccccc3Cl)nc3ccc(Cl)cc23)c1C [Compound 221] |  | IC50 [3, 6]: 10 µM
24 |  |  | 20 µM | Cc1n[nH]c(C)c1CN(C)C(=O)c1nc(-c2ccccc2Cl)nc2ccc(Cl)cc12 [Compound 229] |  | IC50 [3, 6]: 20 µM
25 |  |  | 20 µM | CCn1ncc(CN(C)C(=O)c2nc(-c3cn(CCCN(C)C(=O)OC(C)(C)C)cn3)nc3ccc(Cl)cc23)c1C [Compound 230] |  | IC50 [3, 6]: 20 µM
26 |  |  | 20 µM | CCn1ncc(CN(C)C(=O)c2nc(-c3cc(Cl)cc(OCCCN(C)C(=O)OC(C)(C)C)c3)nc3ccc(Cl)cc23)c1C [Compound 233] |  | IC50 [3, 6]: 20 µM
27 |  |  | 20 µM | CCn1ncc(CN(C)C(=O)c2nc(-c3ccc(OCCNC)cn3)nc3ccc(Cl)cc23)c1C [Compound 238] |  | IC50 [3, 6]: 20 µM
28 |  |  | 20 µM | CCn1ncc(CN(C)C(=O)c2cc(-c3cn(Cc4ccc(OC)cc4)c(CN(C)C)n3)nc3ccc(Cl)cc23)c1C [Compound 239] |  | IC50 [3, 6]: 20 µM
29 |  |  | 20 µM | CCn1ncc(CN(C)C(=O)c2nc(-c3cn(CCN(C)C(=O)OC(C)(C)C)cn3)nc3ccc(Cl)cc23)c1C [Compound 240] |  | IC50 [3, 6]: 20 µM
30 |  |  | 20 µM | CCn1ncc(CN(C)C(=O)c2nc(N3CCN(C)CC3)nc3ccc(Cl)cc23)c1C [Compound 245] |  | IC50 [3, 6]: 20 µM
31 | 13 µM |  | 15 µM | CCn1ncc(CN(C)C(=O)c2nc(-c3ccccc3Cl)nc3ccccc23)c1C [Compound 284] |  | IC50 [3, 6]: 8.5 µM
32 | 5.5 µM |  | 15 µM | CCn1ncc(CN(C)C(=O)c2cc(-c3cccc(Cl)c3)nc3ccc(N(C)C)cc23)c1C [Compound 369] |  | 
33 | 2.3 µM |  | 4.5 µM | CCn1ncc(CN(C)C(=O)c2nc(-c3ccc(OC)cc3)nc3ccc(Cl)cc23)c1C [Compound 373] |  | 
34 | 9.2 µM |  | 18 µM | CCc1ccc(-c2nc(C(=O)N(C)Cc3cnn(CC)c3C)c3cc(Cl)ccc3n2)cc1 [Compound 374] |  | 
35 |  |  |  | CCn1ncc(CN(C)C(=O)c2cc(-c3ccc(NCC(O)CN(C)C)c(C)n3)nc3ccc(COC)cc23)c1C (stereo not drawn) [Compound 643] |  | IC50 [2, 7]: 0.327 µM; IC50 [3, 8]: 0.233 µM
36 |  |  |  | CCc1ncc(CN(C)C(=O)c2cc(-c3ccc(NCC(O)CN(C)C)c(C)n3)nc3ccc(COC)cc23)n1C (stereo not drawn) [Compound 644] |  | IC50 [2, 7]: 0.701 µM; IC50 [3, 8]: 0.269 µM

Row | SMILES | IC50 [1] | IC50 ([2]; H3K18Ac in-cell western) | IC50 [2, 5] | IC50 [3, 4] | other results
37 | CCn1ncc(CN(C)C(=O)c2nc(-c3cncn3C)nc3ccc(Cl)cc23)c1C [Compound 158] | 14 µM | 9.8 µM |  |  | IC50 ([3]; high throughput proliferation): 6.6 µM
38 | CCn1ncc(CN(C)C(=O)c2nc(-c3cncn3C)nc3ccc(Cl)cc23)c1C [Compound 363] | 9.2 µM |  | 7.4 µM |  | 
